Laboratory results as given in PMC3701073, “The Mode of Inhibitor Binding to Peptidyl-tRNA Hydrolase: Binding Studies and Structure Determination of Unbound and Bound Peptidyl-tRNA Hydrolase from Acinetobacter baumannii” (PLoS ONE, 2013).

Biological target: T1, peptidyl-tRNA hydrolase from Acinetobacter baumannii (AbPth) (Acinetobacter baumannii, UniProt D0C9L6)
T1 construct: gene pth; full length, 193 residues (Met1-Ala193), N-terminal 6xHis tag (pET-28a, NdeI/XhoI; cleavage not mentioned), E. coli BL21(DE3)
T1 sequence (D0C9L6 1-193): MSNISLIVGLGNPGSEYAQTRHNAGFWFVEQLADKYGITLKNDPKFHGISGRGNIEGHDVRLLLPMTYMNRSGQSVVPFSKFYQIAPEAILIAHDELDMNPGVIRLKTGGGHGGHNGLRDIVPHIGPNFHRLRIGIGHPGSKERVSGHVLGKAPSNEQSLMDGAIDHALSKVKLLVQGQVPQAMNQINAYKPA
Assay: intrinsic fluorescence quenching (Scatchard)
Assay type: binding

Structure (SMILES)	Kd [nM]
O=c1ccn([C@@H]2O[C@H](CO)[C@@H](O)[C@H]2O)c(=O)[nH]1 [uridine]	~2.11
Nc1ccn([C@@H]2O[C@H](CO)[C@@H](O)[C@H]2O)c(=O)n1 [cytidine]	4.79
